Laboratory results from PubChem BioAssay (NCI).
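Test compounds were applied to cells in 96-well plates for 48 hours at 5 doses. The concentration for full growth arrest is given as TGI.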

How the values were obtained:
Test in all cases: growth of human tumour cells (NCI), 48 h
786-0 renal = system: 786-0 renal
A549 NSCLC = system: A549 NSCLC
ACHN renal = system: ACHN renal
BT-549 breast = system: BT-549 breast
CAKI-1 renal = system: CAKI-1 renal
CCRF-CEM leukemia = system: CCRF-CEM leukemia
COLO 205 colon = system: COLO 205 colon
DU-145 prostate = system: DU-145 prostate
EKVX NSCLC = system: EKVX NSCLC
HCC-2998 colon = system: HCC-2998 colon
HCT-116 colon = system: HCT-116 colon
HCT-15 colon = system: HCT-15 colon
HL-60(TB) leukemia = system: HL-60(TB) leukemia
HOP-62 NSCLC = system: HOP-62 NSCLC
HOP-92 NSCLC = system: HOP-92 NSCLC
HS 578T breast = system: HS 578T breast
HT29 colon = system: HT29 colon
IGROV1 ovarian = system: IGROV1 ovarian
K-562 leukemia = system: K-562 leukemia
KM12 colon = system: KM12 colon
LOX IMVI melanoma = system: LOX IMVI melanoma
M14 melanoma = system: M14 melanoma
MALME-3M melanoma = system: MALME-3M melanoma
MCF7 breast = system: MCF7 breast
MDA-MB-231 breast = system: MDA-MB-231 breast
MDA-MB-435 = system: MDA-MB-435
MDA-N = system: MDA-N
MOLT-4 leukemia = system: MOLT-4 leukemia
NCI-H226 lung = system: NCI-H226 lung
NCI-H23 lung = system: NCI-H23 lung
NCI-H460 lung = system: NCI-H460 lung
NCI-H522 lung = system: NCI-H522 lung
NCI/ADR-RES ovarian = system: NCI/ADR-RES ovarian
OVCAR-3 ovarian = system: OVCAR-3 ovarian
OVCAR-4 ovarian = system: OVCAR-4 ovarian
OVCAR-5 ovarian = system: OVCAR-5 ovarian
OVCAR-8 ovarian = system: OVCAR-8 ovarian
PC-3 prostate = system: PC-3 prostate
RPMI-8226 leukemia = system: RPMI-8226 leukemia
RXF 393 renal = system: RXF 393 renal
SF-268 CNS = system: SF-268 CNS
SF-295 CNS = system: SF-295 CNS
SF-539 CNS = system: SF-539 CNS
SK-MEL-2 melanoma = system: SK-MEL-2 melanoma
SK-MEL-28 melanoma = system: SK-MEL-28 melanoma
SK-MEL-5 melanoma = system: SK-MEL-5 melanoma
SK-OV-3 ovarian = system: SK-OV-3 ovarian
SN12C renal = system: SN12C renal
SNB-19 CNS = system: SNB-19 CNS
SNB-75 CNS = system: SNB-75 CNS
SR leukemia = system: SR leukemia
SW-620 colon = system: SW-620 colon
T-47D breast = system: T-47D breast
TK-10 renal = system: TK-10 renal
U251 CNS = system: U251 CNS
UACC-257 melanoma = system: UACC-257 melanoma
UACC-62 melanoma = system: UACC-62 melanoma
UO-31 renal = system: UO-31 renal
A498 renal = system: A498 renal

O=c1cc(N=Nc2ccc(Cl)cc2)[nH]c(=O)[nH]1
TGI (786-0 renal): 3.21 µM
TGI (A549 NSCLC): 18.8 µM
TGI (ACHN renal): 5.76 µM
TGI (BT-549 breast): 8.38 µM
TGI (CAKI-1 renal): 4.12 µM
TGI (CCRF-CEM leukemia): 4.94 µM
TGI (COLO 205 colon): 5.81 µM
TGI (DU-145 prostate): 22.6 µM
TGI (EKVX NSCLC): 8.5 µM
TGI (HCC-2998 colon): 9.1 µM
TGI (HCT-116 colon): 3.87 µM
TGI (HCT-15 colon): 4.43 µM
TGI (HL-60(TB) leukemia): 3.89 µM
TGI (HOP-62 NSCLC): 30.1 µM
TGI (HOP-92 NSCLC): 5.48 µM
TGI (HS 578T breast): 12.7 µM
TGI (HT29 colon): 5.44 µM
TGI (IGROV1 ovarian): 8.92 µM
TGI (K-562 leukemia): > 31.6 µM
TGI (KM12 colon): 10.6 µM
TGI (LOX IMVI melanoma): 3.45 µM
TGI (M14 melanoma): 9.19 µM
TGI (MALME-3M melanoma): 8.71 µM
TGI (MCF7 breast): 22.8 µM
TGI (MDA-MB-231 breast): 8.28 µM
TGI (MDA-MB-435): 14 µM
TGI (MDA-N): 11 µM
TGI (MOLT-4 leukemia): 7.5 µM
TGI (NCI-H226 lung): 20.4 µM
TGI (NCI-H23 lung): 14.1 µM
TGI (NCI-H460 lung): 12.2 µM
TGI (NCI-H522 lung): 3.63 µM
TGI (NCI/ADR-RES ovarian): 12.5 µM
TGI (OVCAR-3 ovarian): 9.53 µM
TGI (OVCAR-4 ovarian): 9.03 µM
TGI (OVCAR-5 ovarian): 32.2 µM
TGI (OVCAR-8 ovarian): 12 µM
TGI (PC-3 prostate): 11.7 µM
TGI (RPMI-8226 leukemia): 12 µM
TGI (RXF 393 renal): 10.2 µM
TGI (SF-268 CNS): 12.3 µM
TGI (SF-295 CNS): 22.3 µM
TGI (SF-539 CNS): 10.2 µM
TGI (SK-MEL-2 melanoma): 21.5 µM
TGI (SK-MEL-28 melanoma): 13.5 µM
TGI (SK-MEL-5 melanoma): 21.4 µM
TGI (SK-OV-3 ovarian): 22 µM
TGI (SN12C renal): 9.45 µM
TGI (SNB-19 CNS): 25.2 µM
TGI (SNB-75 CNS): 22.1 µM
TGI (SR leukemia): 2.67 µM
TGI (SW-620 colon): 5.65 µM
TGI (T-47D breast): 11.9 µM
TGI (TK-10 renal): 13.5 µM
TGI (U251 CNS): 12.6 µM
TGI (UACC-257 melanoma): 10.6 µM
TGI (UACC-62 melanoma): 7.11 µM
TGI (UO-31 renal): 10.6 µM

CC(NC(=O)C(N)CC(=O)O)NC(=O)N(C)C(C)(C)C (centres undefined)
TGI (786-0 renal): > 100 µM
TGI (A549 NSCLC): > 100 µM
TGI (ACHN renal): > 100 µM
TGI (BT-549 breast): > 100 µM
TGI (CAKI-1 renal): > 100 µM
TGI (CCRF-CEM leukemia): > 100 µM
TGI (COLO 205 colon): > 100 µM
TGI (DU-145 prostate): > 100 µM
TGI (EKVX NSCLC): > 100 µM
TGI (HCC-2998 colon): > 100 µM
TGI (HCT-116 colon): > 100 µM
TGI (HCT-15 colon): > 100 µM
TGI (HL-60(TB) leukemia): > 100 µM
TGI (HOP-62 NSCLC): > 100 µM
TGI (HS 578T breast): > 100 µM
TGI (HT29 colon): > 100 µM
TGI (IGROV1 ovarian): > 100 µM
TGI (K-562 leukemia): > 100 µM
TGI (KM12 colon): > 100 µM
TGI (LOX IMVI melanoma): > 100 µM
TGI (M14 melanoma): > 100 µM
TGI (MALME-3M melanoma): > 100 µM
TGI (MCF7 breast): > 100 µM
TGI (MDA-MB-231 breast): > 100 µM
TGI (MDA-MB-435): > 100 µM
TGI (MDA-N): > 100 µM
TGI (MOLT-4 leukemia): > 100 µM
TGI (NCI-H226 lung): > 100 µM
TGI (NCI-H23 lung): > 100 µM
TGI (NCI-H460 lung): > 100 µM
TGI (NCI-H522 lung): > 100 µM
TGI (NCI/ADR-RES ovarian): > 100 µM
TGI (OVCAR-3 ovarian): > 100 µM
TGI (OVCAR-4 ovarian): > 100 µM
TGI (OVCAR-5 ovarian): > 100 µM
TGI (OVCAR-8 ovarian): > 100 µM
TGI (PC-3 prostate): > 100 µM
TGI (RPMI-8226 leukemia): > 100 µM
TGI (RXF 393 renal): > 100 µM
TGI (SF-268 CNS): > 100 µM
TGI (SF-295 CNS): > 100 µM
TGI (SF-539 CNS): > 100 µM
TGI (SK-MEL-2 melanoma): > 100 µM
TGI (SK-MEL-28 melanoma): > 100 µM
TGI (SK-MEL-5 melanoma): > 100 µM
TGI (SK-OV-3 ovarian): > 100 µM
TGI (SN12C renal): > 100 µM
TGI (SNB-19 CNS): > 100 µM
TGI (SNB-75 CNS): > 100 µM
TGI (SR leukemia): > 100 µM
TGI (SW-620 colon): > 100 µM
TGI (T-47D breast): > 100 µM
TGI (TK-10 renal): > 100 µM
TGI (U251 CNS): > 100 µM
TGI (UACC-257 melanoma): > 100 µM
TGI (UACC-62 melanoma): > 100 µM
TGI (UO-31 renal): > 100 µM

CC1(CC2=C(C(=O)NCCO[Si](C)(C)C(C)(C)C)C3(OCCO3)C2=O)OCCO1
TGI (786-0 renal): > 100 µM
TGI (A498 renal): > 100 µM
TGI (A549 NSCLC): > 100 µM
TGI (ACHN renal): > 100 µM
TGI (BT-549 breast): > 100 µM
TGI (CAKI-1 renal): > 100 µM
TGI (CCRF-CEM leukemia): > 100 µM
TGI (COLO 205 colon): > 100 µM
TGI (DU-145 prostate): > 100 µM
TGI (EKVX NSCLC): > 100 µM
TGI (HCT-116 colon): > 100 µM
TGI (HCT-15 colon): > 100 µM
TGI (HL-60(TB) leukemia): > 100 µM
TGI (HOP-62 NSCLC): > 100 µM
TGI (HOP-92 NSCLC): > 100 µM
TGI (HS 578T breast): > 100 µM
TGI (HT29 colon): > 100 µM
TGI (IGROV1 ovarian): > 100 µM
TGI (KM12 colon): > 100 µM
TGI (LOX IMVI melanoma): > 100 µM
TGI (M14 melanoma): > 100 µM
TGI (MALME-3M melanoma): 72.7 µM
TGI (MCF7 breast): > 100 µM
TGI (MDA-MB-231 breast): > 100 µM
TGI (MDA-MB-435): > 100 µM
TGI (MDA-N): > 100 µM
TGI (MOLT-4 leukemia): > 100 µM
TGI (NCI-H226 lung): > 100 µM
TGI (NCI-H23 lung): > 100 µM
TGI (NCI-H460 lung): > 100 µM
TGI (NCI-H522 lung): 93.7 µM
TGI (NCI/ADR-RES ovarian): > 100 µM
TGI (OVCAR-3 ovarian): > 100 µM
TGI (OVCAR-4 ovarian): > 100 µM
TGI (OVCAR-5 ovarian): > 100 µM
TGI (OVCAR-8 ovarian): > 100 µM
TGI (PC-3 prostate): > 100 µM
TGI (SF-268 CNS): > 100 µM
TGI (SF-295 CNS): > 100 µM
TGI (SF-539 CNS): > 100 µM
TGI (SK-MEL-2 melanoma): > 100 µM
TGI (SK-MEL-28 melanoma): > 100 µM
TGI (SK-MEL-5 melanoma): > 100 µM
TGI (SK-OV-3 ovarian): > 100 µM
TGI (SN12C renal): > 100 µM
TGI (SNB-19 CNS): > 100 µM
TGI (SNB-75 CNS): > 100 µM
TGI (SW-620 colon): > 100 µM
TGI (T-47D breast): > 100 µM
TGI (TK-10 renal): > 100 µM
TGI (U251 CNS): > 100 µM
TGI (UACC-257 melanoma): > 100 µM
TGI (UACC-62 melanoma): > 100 µM
TGI (UO-31 renal): > 100 µM
